Source: USRE48461E1, “Modulation of androgen receptor expression” (Ionis Pharmaceuticals, Inc., priority 2012, dated 2021)

Assays:
MDA-MB-453 tumor = experiment: Tumor volume in MDA-MB-453 breast cancer orthotopic model; assay type: in vivo, NSG mice; conditions: 50 mg/kg s.c. five times a week for 4 weeks; for Tumor volume: Study 1, MDA-MB-453 orthotopic, NSG mice
[1] = cynomolgus monkey, in vivo, sc, 40 mg/kg
[2] = cynomolgus monkey, in vivo, sc, 40 mg/kg; remark: listed apart in the source
AR mRNA = AR mRNA expression in MDA-MB-453 breast cancer orthotopic model; assay type: in vivo, human; conditions: Study 1; TB-interface, normalized to actin; 50 mg/kg s.c. five times a week for 4 weeks
[3] = cynomolgus monkey, in vivo, sc, 40 mg/kg; remark: listed apart in the source
[4] = cynomolgus monkey, in vivo, sc, 40 mg/kg; remark: listed apart in the source
Method: The monkeys were 2-4 years old and weighed between 2 and 4 kg. Thirteen groups of four randomly assigned male cynomolgus monkeys each were injected subcutaneously with ISIS oligonucleotide or PBS. PBS solution or ISIS oligonucleotides, at a dose of 40 mg/kg, were administered with a loading regimen consisting of four doses on the first week of the study (days 1, 3, 5, and 7), followed by a maintenance regimen consisting of once weekly administration starting on Day 14 (weeks 2 to 6). Subcutaneous injections were performed in clock-wise rotations at 4 sites on the back; one site per dose. The injection sites were delineated by tattoo, while sedated using ketamine, and were separated by a minimum of 3 cm.
To evaluate any inflammatory effect of ISIS oligonucleotides in cynomolgus monkeys, the monkeys were fasted overnight. Approximately, 1.5 mL of blood samples were collected from all the study groups on day 44. Blood was collected in tubes without anticoagulant for serum separation. The tubes were kept at room temperature for a minimum of 90 min and then centrifuged at 3,000 rpm for 10 min. C-reactive protein (CRP), which is synthesized in the liver and which serves as a marker of inflammation, was measured on day 43 using a Toshiba 120FR NEO chemistry analyzer (Toshiba Co., Japan). Complement C3 was also measured similarly, and the data is presented as a percentage of baseline values.

[5] = cynomolgus monkey, in vivo, sc, 40 mg/kg; remark: listed apart in the source

“TGATTTAATGGTTGCA [ISIS 569216] (cEt/MOE gapmer chemistry, further chemistry not given here)” gave a Tumor volume (MDA-MB-453 tumor; Day 16) of 134, a Tumor volume (MDA-MB-453 tumor; Day 23) of 142 and a Tumor volume (MDA-MB-453 tumor; Day 30) of 173. For the same sequence, the Tumor volume (MDA-MB-453 tumor; Day 37) was 125, the Tumor volume (MDA-MB-453 tumor; Day 44) was 92 and the Tumor volume (MDA-MB-453 tumor; Day 51) was 73. For the same sequence, the Tumor volumes (MDA-MB-453 tumor; Study 1, MDA-MB-453 model) was “tumor volumes were significantly decreased”, the “Body Wt” value [1] was 2.6 kg and the Heart weight [1] was 9.3 g. For the same sequence, the Kidney weight [1] was 15 g, the Liver weight [1] was 71 g and the “Mesenteric lymph nodes weight” value [1] was 2.7 g. For the same sequence, the Spleen weight [1] was 4.9 g, the ALT [2] was 75 IU/L and the AST [2] was 93 IU/L. The Albumin [2] was 3.7 g/dL, the “AR mRNA expression inhibited compared to the control group” value (AR mRNA) was 48% and the “Plasma BUN” value [3] was 28.4 mg/dL. The “Plasma Creatinine” value [3] was 0.81 mg/dL, the “C3 (% of baseline)” value [4] was 94 % of baseline and the CRP [4] was 3.6 mg/dL. It also gave an HCT [5] of 43%, a Hemoglobin [5] of 12.8 g/dL and a Platelets [5] of 504000 µL. For the same sequence, the RBC [5] was 5.6e+06 µL and the WBC [5] was 12200 µL.
